Measurements published in patent US8822541B2, “Use of targeted nitroxide agents in mitigating or treating radiation injury” (University of Pittsburgh—Of the Commonwealth System of …, priority 2008, dated 2014).
“Also recorded” adds a separate entry of the source.

Tests used:
[1] = system: mice exposed to total body irradiation; assay: Survival of mice after total body irradiation; type: in vivo, mouse
Method: Mice received intraperitoneal injection of 10 mg. per kilogram of each of the chemicals indicated in FIG. 5, then 24 hours later received 9.75 Gy total body irradiation according to published methods. Mice were followed for survival according to IACUC regulations. […] (P=0.0008).
Groups of 15 mice received intraperitoneal injection of 10 mg. per kilogram of each indicated GS-nitroxide compound or carrier (Cremphora plus alcohol at 1 to 1 ratio, then diluted 1 to 10 in distilled water). Mice received 10 mg per kilogram intra-peritoneal injection 24 hours prior to total body irradiation. Control mice received radiation alone. […] (P=0.0005)
C57BL/6NHsd female mice were irradiated to 9.5 Gy whole body irradiation. At 10 min, 30 min, 1 hr, 4 hr, or 8 hr after irradiation, the mice were injected intraperitoneally with JP4-039 (10 mg/kg). The mice were followed for the development of the irradiation induced hematopoietic syndrome.
Mice were irradiated to 9.5 Gy and injected IP 10 minutes later with concentration of JP-4-039 ranging from 0.5 mg/kg to 10 mg/kg. The mice were followed for developments of the hematopoietic syndrome. The optimal dose of JP4-039 providing the best irradiation protection is 5 mg/kg.

[2] = system: MEF cells from Ercc1−/− mouse embryos; assay: Toxicity of JP4-039 in Ercc1−/− MEF cultures; type: cell-based; conditions: up to 10 μM
Method: To assess the therapeutic potential of JP4-039, tests for safety and protective activity were performed. FIGS. 35 and 36 show the results of tests to evaluate whether varying concentrations of JP4-039 produce toxic effects after 48 hours in cultures of MEF cells prepared from Ercc1^−/− or wild-type mouse embryos, respectively.

[3] = system: Ercc1−/cond; K14-Cre mice; assay: Photoaging after UV-B in Ercc1−/cond; K14-Cre mice; type: in vivo, mouse; conditions: 80 ug in cream daily for five days
Method: As a measure of the effect of XJB-5-131 on photoaging, Ercc1^−/cond; K14-Cre mice, which are missing ERCC1 only in the skin, were shaved, treated with a depilatory then irradiated with UV-B light to induce a sunburn (500 J/m^2, the median erythemal dose). Subsequently, the mice were treated with XJB-5-131 (80 ug) emulsified in a cream daily for five days.

Sprague Dawley rats = assay: Survival of rats subjected to volume-controlled hemorrhagic shock; type: in vivo, rat; conditions: 2 μmol/kg iv
Method: Survival of rats subjected to volume-controlled hemorrhagic shock. Following surgical preparation and a 5-min stabilization period to obtain baseline readings, rats were subjected to hemorrhagic shock. Bleeding was carried out in 2 phases.
Initially, 21 ml/kg of blood was withdrawn over 20 min. Immediately thereafter, an additional 12.5 ml/kg of blood was withdrawn over 40 min. Thus, hemorrhage occurred over a total period of 60 min and the total blood loss was 33.5 ml/kg or approximately 55% of the total blood volume. Rats were randomly assigned to receive XJB-5-131 (2 μmol/kg) or its vehicle, a 33:67 (v/v) mixture of DMSO and normal saline. XJB-5-131 solution or vehicle alone was administered as a continuous infusion during the last 20 min of the hemorrhage period. The total volume of fluid infused was 2.8 ml/kg and it was administered intravenously using a syringe pump (KD100, KD Scientific, New Hope, Pa.). […] At the end of the 6 hour observation period, animals that were still alive were euthanized with an overdose of KCl.
Blood pressure was recorded continuously using a commercial strain-gauge transducer, amplifier, and monitor (S90603a, SpaceLabs, Redmond, Wash.). Blood samples (0.5 ml) were collected from the jugular vein at the beginning of hemorrhage (baseline), at the end of hemorrhage (shock) and at the end of resuscitation (resuscitation). Hemoglobin concentration [Hb], lactate and glucose concentration were determined using an auto-analyzer (Model ABL 725, Radiometer Copenhagen, Westlake, Ohio).
A total of sixteen rats were tested in this study. Rats were treated with 2.8 ml/kg of vehicle or the same volume of XJB-5-131 solution during the final 20 min of the bleeding protocol. The total dose of XJB-5-131 infused was 2 μmol/kg. Following profound hemorrhagic shock consistent with the protocol described above for the prior studies, thirteen survived for at least 60 min and received the full dose of either XJB-5-131 solution or the vehicle, a 33:67 (v/v) mixture of DMSO and normal saline. […] None of the between-group differences were statistically significant.

SMILES	survival of mice ([1]; 9.5 Gy TBI, 10 mg/kg ip 24 hours prior)	optimal time of delivery for radiation mitigation ([1]; 9.5 Gy, 10 mg/kg ip after irradiation) [h]	optimal dose providing the best irradiation protection ([1]; 9.5 Gy, IP 10 minutes after irradiation) [mg/kg]	survival of mice ([1]; 9.75 Gy TBI, 10 mg/kg ip 24 hours before)	cellular proliferation relative to untreated control cells ([2]; Ercc1−/− or wild-type MEF)	toxicity ([2]; 48 hours)	appearance of UV-B irradiated skin [3]	rats surviving longer than 3 hours after completion of the hemorrhage protocol (Sprague Dawley rats)	rats surviving the whole 6 hour post-bleeding observation period (Sprague Dawley rats)	survival time versus vehicle (Sprague Dawley rats; no resuscitation)
CC(C)C[C@@H](/C=C/CC(=O)NC1CC(C)(C)N([O])C(C)(C)C1)NC(=O)OC(C)(C)C [JP4-039, TEMPO-4-yl-(S,E)-5-(tert-butoxycarbonylamino)-7-methyloct-3-enamide]	increases survival	1	5	significant increase in survival	enhanced	no signs of toxicity; also recorded: not toxic				
CC(C)C[C@@H](/C=C/[C@H](Cc1ccccc1)C(=O)N1CCC[C@H]1C(=O)N[C@H](C(=O)N[C@@H](CCCNC(=O)OCc1ccccc1)C(=O)NC1CC(C)(C)N([O])C(C)(C)C1)C(C)C)NC(=O)OC(C)(C)C [XJB-5-131]							much more smooth and healthy	Three of the six	one rat	survived significantly longer
